This passage reports IC50 results from article PMC6151550, “Inhibitory Effect of Selaginellins from Selaginella tamariscina (Beauv.) Spring against Cytochrome P450 and Uridine 5′-Diphosphoglucuronosyltransferase Isoforms on Human Liver Microsomes” (Molecules : A Journal of Synthetic Chemistry and Natural …, 2017).

In the assay the target is T1, CYP2B6 (Homo sapiens, UniProt P20813).
T1 construct: the incubation mixtures containing pooled HLMs (0.25 mg/mL, H2630, Xenotech); tissue Xenotech H2630; host or cells: pooled human liver microsomes
T1 sequence (P20813 1-491): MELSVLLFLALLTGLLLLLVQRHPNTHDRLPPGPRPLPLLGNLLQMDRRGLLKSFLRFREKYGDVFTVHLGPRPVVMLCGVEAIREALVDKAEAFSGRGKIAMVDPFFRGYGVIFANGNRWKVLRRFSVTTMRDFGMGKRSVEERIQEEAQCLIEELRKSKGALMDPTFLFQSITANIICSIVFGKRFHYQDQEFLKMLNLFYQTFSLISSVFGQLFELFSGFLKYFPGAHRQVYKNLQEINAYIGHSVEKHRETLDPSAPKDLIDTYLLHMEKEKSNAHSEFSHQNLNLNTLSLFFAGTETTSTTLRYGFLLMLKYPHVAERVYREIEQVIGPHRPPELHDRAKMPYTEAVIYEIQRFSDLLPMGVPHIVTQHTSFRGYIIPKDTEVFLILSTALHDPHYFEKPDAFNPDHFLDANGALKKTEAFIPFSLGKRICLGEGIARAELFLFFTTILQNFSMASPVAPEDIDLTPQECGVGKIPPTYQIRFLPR
Description: CYP2B6 inhibition (bupropion 4-hydroxylase) in human liver microsomes, substrate cocktail LC-MS/MS. The assay is classed as in vitro ADME. As to the method: The inhibitory effects of two selaginellins on the metabolism of ten P450 probe substrates were evaluated using previously reported method with minor modification. Phenacetin O-deethylase, coumarin 7-hydroxylase, bupropion 4-hydroxylase, amodiaquine N-deethylase, tolbutamide 4-hydroxylase, omeprazole 5-hydroxylase, dextromethorphan O-demethylase, chlorzoxazone 6-hydroxylase and midazolam 1′-hydroxylase activities were determined as probe activities for CYP1A2, CYP2A6, CYP2B6, CYP2C8, CYP2C9, CYP2C19, CYP2D6, CYP2E1 and […], respectively, using substrate cocktail incubation and tandem mass spectrometry (Table 2). Selaginellins were dissolved in methanol. The final concentrations of organic solvent (methanol) for the cocktail incubation conditions in all experiments were 1.0% (v/v). In brief, the incubation mixtures containing pooled HLMs (0.25 mg/mL, H2630, Xenotech), P450 probe substrate cocktail, and inhibitor (0, 0.5, 2, 5, 20 and 50 μM) were preincubated at 37 °C for 5 min. […] After mixing and centrifugation, aliquots were analyzed by liquid chromatography-tandem mass spectrometry (LC-MS/MS) as previous described. The CYP2J2 inhibitory effects of two selaginellins were also evaluated in pooled HLMs using previously reported method. […]

SMILES strings stand for the structures.

In turn, `COc1ccc(C(=C2C=CC(=O)C=C2)c2c(-c3ccc(O)cc3)ccc(CO)c2C#Cc2ccc(O)cc2)cc1` [Selaginellin M] had an IC50 of 11.3 µM. `O=C1C=CC(=C(c2ccc(O)cc2)c2c(-c3ccc(O)cc3)ccc(CO)c2C#Cc2ccc(O)cc2)C=C1` [Selaginellin]: the IC50 was found to be 10.7 µM. This IC50 and that of the compound before are within 1.5-fold of each other.

One may read the IC50 as the concentration that gives 50% inhibition. Higher therefore signals weaker potency in that assay.
